Measurements reported in patent US10123978B2, “Patch for treating dermatophytosis” (MEIJI SEIKA PHARMA CO., LTD., priority 2012, dated 2018).
Where a name gives a salt, the structure may show the parent alone.

tested on: Trichophyton rubrum (T. rubrum) ATCC10218; test: Antifungal activity test against dermatophytes (MIC); format: cell-based; details: 80% growth inhibiting concentration, RPMI1640/MOPS, 28° C., 4 days, WST8
Procedure: (§1) Measurement of the anti-trichophyton activity of the compound of the formula (I) comprised in the patch of the present invention was carried out by the following method. The compound to be evaluated was used by dissolving in dimethyl sulfoxide (DMSO). As a medium for the test, RPMI1640 medium containing 0.165M of 3-morpholinopropanesulfonic acid (MOPS) was used. As fungi to be tested, Trichophyton mentagrophytes (T. mentagrophytes) ATCC18748 or Trichophyton rubrum (T. rubrum) ATCC10218 was used. The testing fungal strain was apportioned to 100 μl with a concentration of 1×10^4 conidia/ml, mixed with a compound to be evaluated on a 96-well half area plate so that the DMSO concentration became 1%, and cultured at a cultivation temperature of 28° C. for 3 days (Trichophyton mentagrophytes) or 4 days (Trichophyton rubrum). Thereafter, 5 μl of Cell Counting Kit 8 (WST8) was added thereto, and absorbances at 450 nm and 595 nm were measured to use these as background values. Thereafter, these were cultivated at 28° C. for 5 hours (Trichophyton mentagrophytes) or overnight (Trichophyton rubrum) to cause a color, and absorbances at 450 nm and 595 nm were measured again. A growth inhibiting rate was calculated from the difference to the background values, and a 80% growth inhibiting concentration was made an MIC value (μg/ml).

Row | SMILES | MIC (T. rubrum)
1 | Cc1cc(C)n(-c2ccc(C(=O)O)cc2O)n1 [compound 37] | B (4-16 μg/ml)
2 | Cc1cc(C(F)(F)F)nn1-c1ccccc1O [compound 5] | D (>32-64 μg/ml)
3 | Cc1ccnn1-c1ccccc1O [compound 8] | E (>64 μg/ml)
4 | Cc1nn(-c2ccc(F)cc2O)c(C)c1C [compound 18] | B (4-16 μg/ml)
5 | COC(=O)c1ccc(-n2nc(C)cc2C)c(O)c1 [compound 35] | C (16-32 μg/ml)
6 | CCc1c(C)nn(-c2ccccc2O)c1C [compound 17] | A (≤2 μg/ml)
7 | Cc1nn(-c2ccc(N)cc2O)c(C)c1C [compound 34] | B (4-16 μg/ml)
8 | Cc1nn(-c2cc(O)ccc2O)c(C)c1Cl [compound 19] | C (16-32 μg/ml)
9 | Cc1nn(-c2ccc(C(=O)O)cc2O)c(C)c1C [compound 40] | D (>32-64 μg/ml)
10 | Cc1cc(C)n(-c2cccc(Cl)c2O)n1 [compound 12] | E (>64 μg/ml)
11 | Cc1cc(C)n(-c2ccc(C(N)=O)cc2O)n1 [compound 39] | C (16-32 μg/ml)
12 | Cc1cc(C)n(-c2cc(Cl)ccc2O)n1 [compound 11] | D (>32-64 μg/ml)
13 | Cc1nn(-c2ccccc2O)c(C)c1Cl [compound 13] | B (4-16 μg/ml)
14 | Cc1cc(C)n(-c2ccc(Cl)cc2O)n1 [compound 26] | A (≤2 μg/ml)
15 | CC(C)(C)c1cc(N)n(-c2ccccc2O)n1 [compound 10] | E (>64 μg/ml)
16 | Cc1cc(C)n(-c2c(N)cccc2O)n1 [compound 36] | D (>32-64 μg/ml)
17 | Cc1nn(-c2ccc([N+](=O)[O-])cc2O)c(C)c1C [compound 32] | B (4-16 μg/ml)
18 | CCOC(=O)c1c(C)nn(-c2ccccc2O)c1C [compound 22] | D (>32-64 μg/ml)
19 | Cc1cc(C)n(-c2ccc(C(=O)N(C)C)cc2O)n1 [compound 38] | B (4-16 μg/ml)
20 | Cc1nn(-c2ccc(Cl)cc2O)c(C)c1C [compound 30] | A (≤2 μg/ml)
21 | Cc1cc(C)n(-c2ccc([N+](=O)[O-])cc2O)n1 [compound 28] | C (16-32 μg/ml)
22 | CCCCc1c(C)nn(-c2ccccc2O)c1C [compound 24] | C (16-32 μg/ml)
23 | Cc1nn(-c2cc(F)ccc2O)c(C)c1C [compound 20] | D (>32-64 μg/ml)
24 | Cc1ccn(-c2ccccc2O)n1 [compound 7] | E (>64 μg/ml)

Results, then the molecule that gave them:

Row | MIC (T. rubrum) | SMILES
25 | D (>32-64 μg/ml) | Cc1nn(-c2ccc(C(N)=O)cc2O)c(C)c1C [compound 41]
26 | A (≤2 μg/ml) | Cc1cc(C)n(-c2ccc(Br)cc2O)n1 [compound 54]
27 | D (>32-64 μg/ml) | Cc1cc(C)n(-c2c(C)cccc2O)n1 [compound 46]
28 | A (≤2 μg/ml) | CCc1ccc(-n2nc(C)cc2C)c(O)c1 [compound 52]
29 | D (>32-64 μg/ml) | Cc1cc(C)n(-c2cccc(C)c2O)n1 [compound 51]
30 | B (4-16 μg/ml) | CC(=O)Oc1ccc(-n2nc(C)cc2C)c(O)c1 [compound 57]
31 | D (>32-64 μg/ml) | Cc1nn(-c2ccc(C(N)=O)cc2O)c(C)c1Cl [compound 42]
32 | B (4-16 μg/ml) | Cc1cc(C)n(-c2ccc(CO)cc2O)n1 [compound 47]
33 | A (≤2 μg/ml) | Cc1ccc(-n2nc(C)cc2C)c(O)c1 [compound 44]
34 | C (16-32 μg/ml) | Cc1cc(C)n(-c2cc(Cl)c(C)cc2O)n1 [compound 61]
35 | A (≤2 μg/ml) | Cc1nn(-c2ccc(Br)cc2O)c(C)c1Cl [compound 55]
36 | B (4-16 μg/ml) | CC(=O)Oc1ccc(-n2nc(C)c(C)c2C)c(O)c1 [compound 59]
37 | A (≤2 μg/ml) | Cc1nn(-c2ccc(Br)cc2O)c(C)c1C [compound 56]
38 | D (>32-64 μg/ml) | Cc1cc(C)n(-c2c(O)cccc2O)n1 [compound 43]

same assay, conditions: Trichophyton rubrum, 96 h, 80% growth inhibiting concentration, RPMI1640/MOPS, 28° C., 4 days, WST8

Row | SMILES | MIC
39 | CN(C/C=C/C#CC(C)(C)C)Cc1cccc2ccccc12 [Terbinafine hydrochloride, reference compound] | ≤ 2 µg/mL
40 | CCC(C)(C)c1ccc(CC(C)CN2C[C@@H](C)O[C@@H](C)C2)cc1 (some centres unmarked) [Amorolfine hydrochloride, reference compound] | ≤ 2 µg/mL

tested on: Trichophyton mentagrophytes (T. mentagrophytes) ATCC18748; test: as above; format: cell-based; details: 80% growth inhibiting concentration, RPMI1640/MOPS, 28° C., 3 days, WST8
Procedure: as §1

Row | SMILES | MIC (T. mentagrophytes)
41 | Cc1cc(C)n(-c2ccc(C(=O)O)cc2O)n1 [compound 37] | B (2 to 8 μg/ml)
42 | Cc1nn(-c2ccc(C(N)=O)cc2O)c(C)c1C [compound 41] | D (Inhibited 50% or more and less than 80% with 32 μg/ml)
43 | Cc1cc(C(F)(F)F)nn1-c1ccccc1O [compound 5] | C (16 to 32 μg/ml)
44 | Cc1ccnn1-c1ccccc1O [compound 8] | C (16 to 32 μg/ml)
45 | Cc1cc(C)n(-c2c(C)cccc2O)n1 [compound 46] | E (Inhibited less than 50% with 32 μg/ml)
46 | Cc1nn(-c2ccc(F)cc2O)c(C)c1C [compound 18] | B (2 to 8 μg/ml)
47 | COC(=O)c1ccc(-n2nc(C)cc2C)c(O)c1 [compound 35] | C (16 to 32 μg/ml)
48 | CCc1c(C)nn(-c2ccccc2O)c1C [compound 17] | A (≤1 μg/ml)
49 | Cc1nn(-c2ccc(N)cc2O)c(C)c1C [compound 34] | B (2 to 8 μg/ml)
50 | Cc1nn(-c2cc(O)ccc2O)c(C)c1Cl [compound 19] | C (16 to 32 μg/ml)
51 | Cc1nn(-c2ccc(C(=O)O)cc2O)c(C)c1C [compound 40] | E (Inhibited less than 50% with 32 μg/ml)
52 | Cc1cc(C)n(-c2cccc(C)c2O)n1 [compound 51] | E (Inhibited less than 50% with 32 μg/ml)
53 | Cc1cc(C)n(-c2cccc(Cl)c2O)n1 [compound 12] | C (16 to 32 μg/ml)
54 | Cc1cc(C)n(-c2ccc(C(N)=O)cc2O)n1 [compound 39] | C (16 to 32 μg/ml)
55 | Cc1cc(C)n(-c2cc(Cl)ccc2O)n1 [compound 11] | C (16 to 32 μg/ml)
56 | Cc1nn(-c2ccccc2O)c(C)c1Cl [compound 13] | A (≤1 μg/ml)
57 | Cc1cc(C)n(-c2ccc(Cl)cc2O)n1 [compound 26] | A (≤1 μg/ml)
58 | CC(C)(C)c1cc(N)n(-c2ccccc2O)n1 [compound 10] | D (Inhibited 50% or more and less than 80% with 32 μg/ml)
59 | Cc1cc(C)n(-c2c(N)cccc2O)n1 [compound 36] | E (Inhibited less than 50% with 32 μg/ml)
60 | Cc1nn(-c2ccc([N+](=O)[O-])cc2O)c(C)c1C [compound 32] | B (2 to 8 μg/ml)
61 | CCOC(=O)c1c(C)nn(-c2ccccc2O)c1C [compound 22] | C (16 to 32 μg/ml)
62 | Cc1cc(C)n(-c2ccc(C(=O)N(C)C)cc2O)n1 [compound 38] | C (16 to 32 μg/ml)
63 | Cc1nn(-c2ccc(Cl)cc2O)c(C)c1C [compound 30] | A (≤1 μg/ml)
64 | Cc1cc(C)n(-c2ccc([N+](=O)[O-])cc2O)n1 [compound 28] | B (2 to 8 μg/ml)
65 | CCCCc1c(C)nn(-c2ccccc2O)c1C [compound 24] | A (≤1 μg/ml)
66 | Cc1nn(-c2cc(F)ccc2O)c(C)c1C [compound 20] | C (16 to 32 μg/ml)
67 | Cc1ccn(-c2ccccc2O)n1 [compound 7] | C (16 to 32 μg/ml)
68 | Cc1cc(C)n(-c2c(O)cccc2O)n1 [compound 43] | E (Inhibited less than 50% with 32 μg/ml)

Continued, values first:

Row | MIC (T. mentagrophytes) | SMILES
69 | A (≤1 μg/ml) | Cc1cc(C)n(-c2ccc(Br)cc2O)n1 [compound 54]
70 | A (≤1 μg/ml) | CCc1ccc(-n2nc(C)cc2C)c(O)c1 [compound 52]
71 | B (2 to 8 μg/ml) | CC(=O)Oc1ccc(-n2nc(C)cc2C)c(O)c1 [compound 57]
72 | C (16 to 32 μg/ml) | Cc1nn(-c2ccc(C(N)=O)cc2O)c(C)c1Cl [compound 42]
73 | B (2 to 8 μg/ml) | Cc1cc(C)n(-c2ccc(CO)cc2O)n1 [compound 47]
74 | A (≤1 μg/ml) | Cc1ccc(-n2nc(C)cc2C)c(O)c1 [compound 44]
75 | C (16 to 32 μg/ml) | Cc1cc(C)n(-c2cc(Cl)c(C)cc2O)n1 [compound 61]
76 | A (≤1 μg/ml) | Cc1nn(-c2ccc(Br)cc2O)c(C)c1Cl [compound 55]
77 | B (2 to 8 μg/ml) | CC(=O)Oc1ccc(-n2nc(C)c(C)c2C)c(O)c1 [compound 59]
78 | A (≤1 μg/ml) | Cc1nn(-c2ccc(Br)cc2O)c(C)c1C [compound 56]

same assay, conditions: Trichophyton mentagrophytes, 72 h, 80% growth inhibiting concentration, RPMI1640/MOPS, 28° C., 3 days, WST8

Row | SMILES | MIC
79 | CN(C/C=C/C#CC(C)(C)C)Cc1cccc2ccccc12 [Terbinafine hydrochloride, reference compound] | ≤ 1 µg/mL
80 | CCC(C)(C)c1ccc(CC(C)CN2C[C@@H](C)O[C@@H](C)C2)cc1 (some centres unmarked) [Amorolfine hydrochloride, reference compound] | ≤ 1 µg/mL
